Experiment [1] can be described thus: viability of uninfected HEp-2 cells – cell-based, HTS, cytotoxicity control for RSV inhibitor project, dose response (AID 2410). The class given is functional. To be noted: human respiratory syncytial virus.
The subject of experiment [2] is Streptococcus sp. 'group A'. Kind of experiment: Streptococcus pyogenes SK(-)GAS viability under kanamycin – luminescence, BacTiterGlo, confirmation, counter-screen for streptokinase expression inhibitor project, dose response (AID 1900). The class given is functional, organism-based.
Experiment [3] concerns the target T1, Heat shock factor protein 1 (Mus musculus, UniProt P38532).
T1 sequence (P38532 whole entry): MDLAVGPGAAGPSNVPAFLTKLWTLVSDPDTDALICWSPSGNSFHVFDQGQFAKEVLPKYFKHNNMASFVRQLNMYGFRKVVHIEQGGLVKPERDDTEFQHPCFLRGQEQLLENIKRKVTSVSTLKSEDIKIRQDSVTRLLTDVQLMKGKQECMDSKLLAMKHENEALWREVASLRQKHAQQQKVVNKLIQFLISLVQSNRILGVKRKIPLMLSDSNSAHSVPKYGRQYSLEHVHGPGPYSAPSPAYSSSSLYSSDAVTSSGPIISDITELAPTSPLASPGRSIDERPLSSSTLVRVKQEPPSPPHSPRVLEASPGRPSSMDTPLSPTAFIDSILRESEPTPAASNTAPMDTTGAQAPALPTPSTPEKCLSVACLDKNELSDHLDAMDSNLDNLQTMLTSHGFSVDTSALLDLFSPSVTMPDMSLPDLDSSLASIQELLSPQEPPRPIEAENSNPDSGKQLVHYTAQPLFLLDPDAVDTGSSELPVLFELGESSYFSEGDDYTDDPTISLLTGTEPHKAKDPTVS
Nature of the experiment: decrease of HSF1-responsive luciferase luminescence – cell-based, NIH3T3, dose retest, confirmation (AID 2382).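 Note: NIH3T3 fibroblasts with HSF1-driven luciferase reporter stressed by proteasome inhibitor MG132; luminescence from HSF1-driven luciferase expression after 8 hours of MG132 stress.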 The class given is functional.

The subject of a further experiment is Streptococcus. Kind of experiment: GAS UMAA2166 growth inhibition – luminescence, BacTiterGlo, counter-screen for streptokinase expression inhibitor project, dose response (AID 1915).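 Note: potency for reduction of bacterial viability or growth.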 The class given is functional, organism-based.
Another experiment deals with Escherichia coli. Kind of experiment: microbe, parasite or virus in culture.
The target in experiment [4] is T2, Apoptotic protease-activating factor 1 (Homo sapiens, UniProt O14727).
T2 sequence (O14727 whole entry): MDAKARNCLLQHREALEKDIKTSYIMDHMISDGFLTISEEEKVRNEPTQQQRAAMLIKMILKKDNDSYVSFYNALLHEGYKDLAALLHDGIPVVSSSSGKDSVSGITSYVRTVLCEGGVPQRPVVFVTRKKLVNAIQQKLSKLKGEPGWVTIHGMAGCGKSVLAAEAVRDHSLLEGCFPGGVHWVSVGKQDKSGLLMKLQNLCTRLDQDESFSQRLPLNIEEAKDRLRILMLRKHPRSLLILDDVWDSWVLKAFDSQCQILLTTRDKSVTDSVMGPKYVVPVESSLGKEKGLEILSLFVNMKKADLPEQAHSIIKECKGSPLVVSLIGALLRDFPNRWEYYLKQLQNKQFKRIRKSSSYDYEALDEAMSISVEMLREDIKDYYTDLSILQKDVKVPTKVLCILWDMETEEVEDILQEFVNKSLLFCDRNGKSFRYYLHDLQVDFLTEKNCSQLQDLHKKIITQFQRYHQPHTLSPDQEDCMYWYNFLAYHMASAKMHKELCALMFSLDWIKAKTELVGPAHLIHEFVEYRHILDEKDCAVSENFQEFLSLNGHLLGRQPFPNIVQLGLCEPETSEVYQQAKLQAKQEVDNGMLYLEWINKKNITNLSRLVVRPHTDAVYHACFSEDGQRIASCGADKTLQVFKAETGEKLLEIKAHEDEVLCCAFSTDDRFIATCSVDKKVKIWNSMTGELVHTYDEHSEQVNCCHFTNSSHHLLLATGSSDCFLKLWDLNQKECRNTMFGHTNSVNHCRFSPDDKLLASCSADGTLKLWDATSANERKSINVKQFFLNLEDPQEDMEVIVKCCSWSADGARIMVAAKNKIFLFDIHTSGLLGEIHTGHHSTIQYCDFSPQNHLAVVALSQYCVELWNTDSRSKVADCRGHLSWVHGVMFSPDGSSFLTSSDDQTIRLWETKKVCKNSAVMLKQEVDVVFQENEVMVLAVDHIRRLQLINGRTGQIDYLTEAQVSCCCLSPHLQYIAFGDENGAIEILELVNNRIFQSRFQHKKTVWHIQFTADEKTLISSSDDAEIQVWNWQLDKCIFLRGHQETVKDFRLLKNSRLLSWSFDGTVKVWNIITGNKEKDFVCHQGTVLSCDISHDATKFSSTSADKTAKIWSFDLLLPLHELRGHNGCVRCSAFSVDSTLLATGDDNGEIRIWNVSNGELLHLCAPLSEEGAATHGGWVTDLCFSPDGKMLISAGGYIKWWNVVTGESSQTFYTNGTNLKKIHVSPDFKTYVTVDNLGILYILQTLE
Format: functional.

In the next experiment the target is T3, Protein skinhead-1 (Caenorhabditis elegans, UniProt P34707).
T3 sequence (P34707 whole entry): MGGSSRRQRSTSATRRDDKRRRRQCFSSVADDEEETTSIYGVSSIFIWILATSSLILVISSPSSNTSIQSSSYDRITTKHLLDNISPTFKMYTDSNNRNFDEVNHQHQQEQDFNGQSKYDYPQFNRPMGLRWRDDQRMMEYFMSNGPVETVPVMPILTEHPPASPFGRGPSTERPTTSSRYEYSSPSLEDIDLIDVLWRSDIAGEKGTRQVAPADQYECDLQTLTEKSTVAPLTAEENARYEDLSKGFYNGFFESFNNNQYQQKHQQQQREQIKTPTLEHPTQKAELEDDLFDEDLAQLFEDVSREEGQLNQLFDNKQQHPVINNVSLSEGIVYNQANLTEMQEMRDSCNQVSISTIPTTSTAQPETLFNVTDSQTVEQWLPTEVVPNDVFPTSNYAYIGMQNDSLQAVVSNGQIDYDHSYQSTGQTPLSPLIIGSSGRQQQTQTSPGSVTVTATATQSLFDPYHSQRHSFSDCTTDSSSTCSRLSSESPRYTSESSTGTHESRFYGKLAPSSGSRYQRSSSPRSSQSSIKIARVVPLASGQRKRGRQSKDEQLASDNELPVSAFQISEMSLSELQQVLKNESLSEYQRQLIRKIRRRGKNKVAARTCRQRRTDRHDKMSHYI
The class given is functional.

Experiment [5] deals with Glucose-6-phosphate 1-dehydrogenase (Homo sapiens, UniProt P11413). Kind of experiment: inhibition of Homo sapiens G6PD, dose series – biochemical, fluorescence, selectivity assay for P. falciparum G6PD inhibitor project, dose response (AID 504792). Format: functional.
A short description of experiment [6]: fluconazole-exposed Candida albicans growth modulators – fluorescence, retest, confirmation (AID 2467). The class given is functional, cell-based.
The target in experiment [7] is T4, Ubiquitin-conjugating enzyme E2 N (Homo sapiens, UniProt P61088).
T4 sequence (P61088 whole entry): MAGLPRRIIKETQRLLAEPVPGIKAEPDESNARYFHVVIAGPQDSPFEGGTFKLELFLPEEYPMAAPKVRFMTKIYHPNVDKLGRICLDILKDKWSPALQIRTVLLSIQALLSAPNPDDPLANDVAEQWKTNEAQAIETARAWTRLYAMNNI
Format: functional.

A short description of experiment [8]: NIH-3T3 fibroblast cytotoxicity, dose response, cytotoxicity control, cell-based, fluorescence, Alamar Blue, secondary assay (AID 2327).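 Note: NIH-3T3 mouse fibroblasts cultured with fluconazole at 8 µg/mL.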 The class given is functional. On the technique in general: The colour change of resazurin is a common sign of viable cells or microbes.
For experiment [9], the target named is T4, Ubiquitin-conjugating enzyme E2 N. The class given is functional. The source holds these as a separate data set.
Experiment [10] concerns the target T5, DNA repair protein RAD52 homolog (Homo sapiens, UniProt P43351).
T5 sequence (P43351 whole entry): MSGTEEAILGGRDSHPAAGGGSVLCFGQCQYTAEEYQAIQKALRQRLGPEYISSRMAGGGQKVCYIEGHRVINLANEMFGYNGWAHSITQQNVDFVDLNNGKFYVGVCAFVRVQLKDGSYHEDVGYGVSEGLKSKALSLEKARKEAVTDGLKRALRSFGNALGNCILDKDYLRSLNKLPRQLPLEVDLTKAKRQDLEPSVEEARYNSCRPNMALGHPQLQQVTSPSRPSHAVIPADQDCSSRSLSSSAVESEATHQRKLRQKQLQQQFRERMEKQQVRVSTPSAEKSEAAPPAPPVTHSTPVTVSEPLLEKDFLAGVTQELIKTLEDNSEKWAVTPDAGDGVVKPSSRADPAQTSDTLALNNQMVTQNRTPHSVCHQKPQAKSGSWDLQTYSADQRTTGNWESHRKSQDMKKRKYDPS
The class given is functional, biochemical.

In another experiment the target is T6, Bcl-2-related protein A1 (Mus musculus, UniProt Q07440).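 Note: confirmatory dose–response counterscreen on Bfl-1, used to check hits from a UBC13 polyubiquitin inhibitor campaign.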
T6 sequence (Q07440 whole entry): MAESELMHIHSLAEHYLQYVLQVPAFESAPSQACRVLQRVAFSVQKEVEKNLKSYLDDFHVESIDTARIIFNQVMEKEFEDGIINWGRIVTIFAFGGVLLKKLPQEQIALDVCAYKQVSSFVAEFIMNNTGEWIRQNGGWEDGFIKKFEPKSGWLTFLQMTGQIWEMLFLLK
Format: functional.

The target in experiment [11] is 5-hydroxytryptamine receptor 5A (Homo sapiens, UniProt P47898). Kind of experiment: Counterscreen for agonists of OPRM1-OPRD1 heterodimerization: luminescence-based cell-based high throughput dose response assay to identify agonists of 5-hydroxytryptamine (serotonin) 5A receptor (HTR5A). [Related pubchem assays (depositor defined):AID504326, AID504355, AID504692, AID504904, AID504905]. The class given is functional. (In general: The purpose of a counterscreen is to sort out artefacts and off-target activity.)

For a further experiment, the target named is Mu-type opioid receptor (Homo sapiens, UniProt P35372). Kind of experiment: Counterscreen for agonists of heterodimerization of the mu 1 (OPRM1) and delta 1 (OPRD1) opioid receptors: Luminescence-based cell-based high throughput dose response assay to identify agonists of OPRM1 homodimerization. The class given is functional.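 Note: U2OS cells expressing OPRM1 and beta-arrestin as split beta-galactosidase partners.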
In experiment [12] the target is Delta-type opioid receptor (Homo sapiens, UniProt P41143). Nature of the experiment: Counterscreen for agonists of heterodimerization of the mu 1 (OPRM1) and delta 1 (OPRD1) opioid receptors: Luminescence-based cell-based high throughput dose response assay to identify agonists of OPRD1 homodimerization. [Related pubchem assays (depositor defined):AID504326, AID504355, AID504692, AID504904, AID504905]. Format: functional.

Another experiment has as its target Cysteine protease ATG4B (Homo sapiens, UniProt Q9Y4P1). Format: functional.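 Note: Fluorescence-based dose-response confirmation assay measuring inhibition of ATG4B activity.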
In another experiment the target is Phospholipase A2 (Homo sapiens, UniProt P04054). Format: functional.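 Note: confirmatory dose-response counterscreen on phospholipase A2, testing hits that came from an ultra-high-throughput screen for ATG4B inhibitors.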
A further experiment has as its system Candida albicans. Kind of experiment: fluconazole-resistant Candida strain growth inhibitors – CaCi-8 strain, dry powder, set 4, dose response (AID 488950). Format: functional, organism-based.

The structures appear in SMILES notation. Activity calls are given as the source filed them.

Chain of Delta-type opioid receptor (P41143 whole entry): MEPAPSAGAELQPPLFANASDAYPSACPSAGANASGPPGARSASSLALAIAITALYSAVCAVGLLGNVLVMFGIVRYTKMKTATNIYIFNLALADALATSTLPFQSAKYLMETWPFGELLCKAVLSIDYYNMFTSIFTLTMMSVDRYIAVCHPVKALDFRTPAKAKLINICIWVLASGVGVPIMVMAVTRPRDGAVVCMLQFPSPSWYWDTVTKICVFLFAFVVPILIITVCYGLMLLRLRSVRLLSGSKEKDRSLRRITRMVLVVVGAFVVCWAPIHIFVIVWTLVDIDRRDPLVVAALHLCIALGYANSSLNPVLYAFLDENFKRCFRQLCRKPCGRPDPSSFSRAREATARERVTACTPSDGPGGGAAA
Chain of Phospholipase A2 (P04054 whole entry): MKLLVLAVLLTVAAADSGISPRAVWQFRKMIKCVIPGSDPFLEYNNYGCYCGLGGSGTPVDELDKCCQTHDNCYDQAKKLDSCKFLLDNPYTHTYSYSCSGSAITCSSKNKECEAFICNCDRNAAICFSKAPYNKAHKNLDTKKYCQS
Chain of 5-hydroxytryptamine receptor 5A (P47898 whole entry): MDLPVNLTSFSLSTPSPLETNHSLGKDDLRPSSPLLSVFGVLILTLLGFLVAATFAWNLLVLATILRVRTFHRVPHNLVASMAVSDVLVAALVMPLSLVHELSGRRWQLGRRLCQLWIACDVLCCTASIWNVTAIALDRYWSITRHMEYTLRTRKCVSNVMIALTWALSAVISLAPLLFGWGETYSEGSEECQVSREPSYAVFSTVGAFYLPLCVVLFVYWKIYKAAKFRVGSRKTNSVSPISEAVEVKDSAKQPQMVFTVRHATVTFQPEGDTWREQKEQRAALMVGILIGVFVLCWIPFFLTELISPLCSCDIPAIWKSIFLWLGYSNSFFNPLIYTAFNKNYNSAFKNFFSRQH
Chain of Mu-type opioid receptor (P35372 whole entry): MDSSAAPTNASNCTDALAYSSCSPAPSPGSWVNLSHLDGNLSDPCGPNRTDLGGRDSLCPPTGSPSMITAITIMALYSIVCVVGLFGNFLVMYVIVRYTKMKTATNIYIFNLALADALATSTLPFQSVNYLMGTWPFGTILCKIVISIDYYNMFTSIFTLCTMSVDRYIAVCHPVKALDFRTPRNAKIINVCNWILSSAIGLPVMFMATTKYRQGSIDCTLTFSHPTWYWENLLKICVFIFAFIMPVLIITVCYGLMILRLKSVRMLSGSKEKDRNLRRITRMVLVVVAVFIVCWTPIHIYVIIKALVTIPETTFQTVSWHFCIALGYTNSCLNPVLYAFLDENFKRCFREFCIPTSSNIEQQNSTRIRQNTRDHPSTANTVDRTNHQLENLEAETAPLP
Chain of Cysteine protease ATG4B (Q9Y4P1 whole entry): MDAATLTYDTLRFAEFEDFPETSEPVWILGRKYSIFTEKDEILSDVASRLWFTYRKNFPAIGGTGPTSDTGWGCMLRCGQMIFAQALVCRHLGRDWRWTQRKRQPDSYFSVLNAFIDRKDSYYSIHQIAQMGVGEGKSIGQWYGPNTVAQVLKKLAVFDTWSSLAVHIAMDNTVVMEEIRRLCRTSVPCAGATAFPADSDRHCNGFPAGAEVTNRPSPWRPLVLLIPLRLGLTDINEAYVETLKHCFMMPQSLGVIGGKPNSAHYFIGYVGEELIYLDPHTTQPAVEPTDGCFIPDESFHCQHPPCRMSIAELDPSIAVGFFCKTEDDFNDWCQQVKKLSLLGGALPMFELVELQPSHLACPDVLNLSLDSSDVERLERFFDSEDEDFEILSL
Chain of Glucose-6-phosphate 1-dehydrogenase (P11413 whole entry): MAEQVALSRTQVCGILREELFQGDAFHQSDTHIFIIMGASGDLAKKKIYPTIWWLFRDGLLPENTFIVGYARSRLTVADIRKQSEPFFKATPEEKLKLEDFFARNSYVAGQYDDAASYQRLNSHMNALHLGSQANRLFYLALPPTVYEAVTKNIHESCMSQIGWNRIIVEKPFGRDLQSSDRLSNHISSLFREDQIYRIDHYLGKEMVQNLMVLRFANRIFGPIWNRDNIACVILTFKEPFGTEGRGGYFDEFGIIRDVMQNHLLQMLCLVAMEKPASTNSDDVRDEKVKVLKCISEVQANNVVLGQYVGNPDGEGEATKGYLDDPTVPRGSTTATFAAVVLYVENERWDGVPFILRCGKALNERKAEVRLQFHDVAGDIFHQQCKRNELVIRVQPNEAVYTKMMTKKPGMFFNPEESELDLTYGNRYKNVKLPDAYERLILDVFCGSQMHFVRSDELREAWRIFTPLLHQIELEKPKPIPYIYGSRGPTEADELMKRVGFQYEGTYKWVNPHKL

What is called CC50 is the concentration at which the toxic effect on the cells reaches its halfway point. What is called EC50 is the concentration that produces a half-maximal response. The AC50 is the midpoint of the concentration-response curve, whichever way the signal moves. `COc1c(N2CCN(C(S)=NC3CC4CCC3C4)C(C)C2)c(F)cc2c(=O)c(C(=O)O)cn(C3CC3)c12` (stereo unspecified): the CC50 in [1] was 9.91 µM (active). The concentration giving a half-maximal response (EC50) in experiment [2] was 5.85 µM (active); in [3], 17 µM (active); in the experiment on Streptococcus it was 3.77 µM (active). Moreover, the AC50 with Escherichia coli was 2.64 µM (active).
For orientation: IC50 means the concentration that inhibits the measured activity by half. Consider `Cc1ccc2nc(-c3ccc(NC(S)=NC4CC(C)(C)NC(C)(C)C4)cc3)sc2c1`, for which the IC50 in [4] is 43.6 µM (active); at Protein skinhead-1 it was 35.1 µM (active); in [5], > 80 µM (inactive); in [7], 16.8 µM (active); in experiment [9] it was > 20 µM (inactive); at Bcl-2-related protein A1 it was > 20 µM (inactive). For the same molecule, the EC50 in experiment [6] is > 38 µM (not active); in experiment [8], > 150 µM (inactive). For the same molecule, the half-maximal activity concentration (AC50) in experiment [10] is 4.95 µM (active).
For `COc1ccccc1CN1CCN(C(CC(C)C)c2nnnn2Cc2cccs2)CC1` (stereo unspecified), the EC50 (in experiment [11]; at Mu-type opioid receptor; in [12]) was > 92.5 µM (inactive) in each case.
Turning to `O=C(O)CC/C(=C\c1ccc(Cl)c([N+](=O)[O-])c1)c1nc2ccccc2s1`, the IC50 on Cysteine protease ATG4B was 14.3 µM (active); at Phospholipase A2, 12.3 µM (active).
Take `CCCCNC(=O)N1CCN(c2ccnc3cc(Cl)ccc23)CC1`: in the experiment with Candida albicans, the AC50 was 23 µM (active).
Take `O=C1OC(c2cccs2)=N/C1=C\c1ccc(-c2cccc(Cl)c2)o1`: the figures for the IC50 on Cysteine protease ATG4B and on Phospholipase A2 were 14.8 µM (active) and 0.605 µM (active), respectively.
`CN(C)C(CNC(=O)c1ccc2ccccc2c1)c1ccco1` (stereo unspecified): the EC50 (in experiment [11]; at Mu-type opioid receptor; in [12]) was > 92.5 µM (inactive) throughout.
On to `CCN(CC)S(=O)(=O)c1ccc(=O)n(CC(=O)N2Cc3ccccc3CC2C(N)=O)c1` (stereo unspecified), for which the AC50 in the experiment on Escherichia coli is 116 µM (active).

For the origin of these results see ChEMBL document CHEMBL1201862, “PubChem BioAssay data set” (2004).
